# “Also recorded” adds a separate entry of the source.
# How the values were obtained:
# [1] = test system: HUVEC and fibroblasts; test: BrdU ELISA cell proliferation cytotoxicity assay; assay type: cell-based, human; conditions: HUVEC and fibroblast monocultures; 24 hours
# Method: (§1) In order to determine whether the fibrin E analogue peptides WTM33, WTM34, WTM35, WTM36, and WTM37 are cytotoxic when applied to the HUVEC and fibroblasts used in the Angiosys™ angiogenesis assay, these reagents were examined in two different cytotoxicity assays. To simplify performance of these assays and discriminate between fibroblasts and HUVEC, cells were grown in monocultures rather than together and then treated with the experimental reagents as described below.
# Cytotoxicity of the fibrin E peptide analogues was also determined by examining cell proliferation, using a commercial BrdU ELISA (Roche Molecular Biochemicals) performed according to the manufacturer's instructions. This assay quantifies DNA synthesis as a measure of cellular proliferation, as stimulation or inhibition of cell replication will require a concomitant change in the rate of DNA synthesis. Measurement of DNA synthesis is achieved by incubating proliferating cells in medium in which thymidine has been replaced with the pyrimidine analogue 5-bromo-2′-deoxyuridine (BrdU). Once incorporated into the cellular DNA, BrdU is measured by immunoassay. Briefly, HUVEC and fibroblasts were seeded as monocultures into 96 well plates at a density of 5×10^3 cells per well, to a final volume of 100 μl per well in endothelial cell culture medium. At the end of an initial culture period of 72 hours under standard conditions, while the cells were still proliferating, fibrin E analogue peptides were added to a range of final concentrations, as shown in the FIG. 8. Each treatment concentration of each peptide was administered to four replicate wells. Control cells received standard medium without test compounds. The cells were incubated for 24 hours with the test compounds, before 10 μl of stock BrdU solution (100 μM) was added to give a final concentration of 10 μM BrdU, and the cells were incubated for a further 2 hours. The test medium was then removed from the cells and replaced with 200 μl per well of Fixing/Denaturing solution, which was incubated on the cells for a further 30 minutes at room temperature. This was then replaced with 100 μl per well anti-BrdU-POD (mouse monoclonal clone BMG 6H8, Fab fragments conjugated to peroxidase) prepared as directed, which was left on the cells for a further 90 minutes at room temperature. The antibody conjugate was then removed from the wells by rinsing three times in 200 μl per well of washing buffer (PBS) before 100 μl well substrate solution (tetramethyl-benzidine) was added and incubated at room temperature until colour development was sufficient for photometric detection (approximately 15 minutes). Absorbance at 370 nm was measured on a multi-well plate ELISA plate reader (Dynatech), with a reference wavelength of 492 nm. Mean absorbance values from each group of four wells were calculated and expressed as a percentage±standard deviation of the mean value obtained from control wells incubated in the absence of fibrin E analogue peptide.
# [2] = test system: Lewis Lung Carcinoma (LLC) cells; test: Pulmonary tumour metastasis model (Lewis lung carcinoma); assay type: in vivo, C57BL/6J mice; conditions: lung weight / metastatic episodes
# Method: In the metastasis model, Lewis Lung Carcinoma (LLC) cells are injected into the tail of the mouse, lodge in the lungs, and grow and spread rapidly.
# In more detail, groups of five C57BL/6J mice were injected with 5×10^4 LLC cells via the tail vein and were subsequently treated intraperitoneally with various concentrations of tested peptides or equal volume of diluent control. The treatment was initiated three days after tumor cell inoculation. Two weeks after the intravenous injection of tumor cells, the mice were sacrificed and necropsied. The lungs were removed, weighed and compared to untreated controls, and to normal lungs without tumors. Results were analyzed for statistical significance using the Student's t-test.
# [3] = test system: chick chorioallantoic membrane (CAM) vessels; test: Vessel counting assay using CAM model; assay type: in vivo
# Method: The CAM were prepared as for the tritiated thymidine assay.
# Dulbecco's phosphate buffered saline was used as a control. A range of concentrations of peptides WTM33, WTM34, and WTM35 (1.875, 3.75, 7.5, 15, 30, and 60 μg/ml) were added to the CAM. Inoculations of 0.2 ml of the peptide were carried out on days 10,11 and 12 of CAM development, and then fixed using formalin on day 15.
# After fixing in formalin for 2 days the CAM were excised and spoke like sections cut from the centre of the CAM to the outer edge. These were embedded in wax and processed on to slides with H&E staining to visualise the vessels in the section. The numbers of vessels per field of vision, over 10 fields were counted using an Olympus microscope. [Eyepieces set at 58, using ×40 (0.65) lens, from the graticule diameter of field is 0.45 mm, and therefore 1 mm is equal to 2.22 fields of view.] The average number of vessels/field of view×2.22 gives number of vessels/mm of CAM.
# [4] = test system: HUVEC and fibroblasts; test: Neutral Red cell metabolism cytotoxicity assay; assay type: cell-based, human; conditions: HUVEC and fibroblast monocultures; 72 hours
# Method: as §1
# A Neutral Red cell metabolism assay was used to determine the cytotoxicity to HUVEC and fibroblasts of the fibrin E analogue peptides. This assay works on the basis of colorimetric measurement of a red dye which, is reported to be taken up into the lysosomes of uninjured cells. Thus the stronger the colour signal obtained from a well of cells, the greater the percentage of cells remaining viable within that well. HUVEC cells were inoculated into wells of 96 wells at a density of 5×10^3 cells per well, in endothelial cell culture medium. Fibroblasts were similarly seeded 5×10^3 cells per well. The cells were incubated for 24 hours under standard conditions to permit adherence and growth, and then treated for 72 hours with fresh medium containing fibrin E peptides over the same range of concentrations used in the Angiosys™ angiogenesis assay. For each concentration of each of the six peptides, four replicate wells of each cell type were treated and then assayed. Following incubation with the test compounds, the medium was removed and replaced with 200 μl per well of fresh medium containing 3.57 mg neutral red per 100 ml. The cells were incubated with this neutral red solution for 3 hours, after which this solution was decanted and replaced with 100 μl 1% formaldehyde/1% CaCl2. This was rapidly decanted and replaced in turn with 200 μl 50% ethanol/1% acetic acid, which was incubated at room temperature for 30 minutes to extract the neutral red from the cells. The plates were then read in a 96 well plate-format spectrophotometer, measuring absorbance at 540 nm. Mean absorbance values from each group of four wells were calculated and expressed as a percentage±standard deviation of the mean value obtained from control wells incubated in the absence of fibrin E analogue peptide.
sequence,measurement,setting,value
LHADPDLGVLCPTGC [WTM34],"cytotoxicity / cell proliferation, BrdU assay",[1],not cytotoxic; also recorded: no toxicity
same,effect in metastasis model (in words),[2],striking results
same,effect on vessel number,[3]; 30 microgrammes/ml,significant reduction in the number of vessels
same,effect on number of vessels per mm of CAM,[3]; across the range of concentrations tested (1.875-60 μg/ml),inhibits cell proliferation and vessel formation in the CAM
same,effect on number of vessels per mm of CAM,"[3]; across the range of concentrations tested (1.875-60 μg/ml), listed as WTM 34",more dramatic biphasic reaction
same,effect on number of vessels per mm of CAM,[3]; higher dose range / very high doses,significant reduction in vessel formation
same,effect on vessel number,[3]; low doses,stimulatory effect on vessel number
same,"cytotoxicity / cell viability, Neutral Red assay",[4],not cytotoxic; also recorded: no toxicity

# Reference: US20040132969A1, “Antibodies, peptides, analogs and uses thereof” (priority 2000, published 2004)
